Measured values taken from ChEMBL document CHEMBL6109156, “Discovery of Dual PD-L1/HDAC3 Inhibitors for Tumor Immunotherapy” (J Med Chem, 2025).
Calls of active or inactive are those of the source. The calls are words filed in the database; no cut-off is given here.

Assays:
[1] = tested on: B16-F10; test: Induction of apoptosis in mouse B16-F10 cells assessed as late apoptotic cells at 10 uM incubated for 48 hrs by Annexin V-FITC/PI staining based flow cytometry analysis (reference value: 5.02 %); format: functional
[2] = molecular target: T1, Programmed cell death protein 1/Programmed cell death 1 ligand 1 (Homo sapiens) (UniProt Q15116+Q9NZQ7); test: Inhibition of PD-1/PD-L1 (unknown origin) interaction assessed as inhibition rate at 0.1 uM by HTRF assay relative to control; format: protein-complex assay
[3] = molecular target: T2, Histone deacetylase 3 (Mus musculus) (UniProt O88895); test: Inhibition of HDAC3 in mouse B16-F10 cells assessed as upregulation of Ac-H3 level at 3 uM incubated for 24 hrs by Western blotting analysis; format: cell-based
T2 sequence (whole entry): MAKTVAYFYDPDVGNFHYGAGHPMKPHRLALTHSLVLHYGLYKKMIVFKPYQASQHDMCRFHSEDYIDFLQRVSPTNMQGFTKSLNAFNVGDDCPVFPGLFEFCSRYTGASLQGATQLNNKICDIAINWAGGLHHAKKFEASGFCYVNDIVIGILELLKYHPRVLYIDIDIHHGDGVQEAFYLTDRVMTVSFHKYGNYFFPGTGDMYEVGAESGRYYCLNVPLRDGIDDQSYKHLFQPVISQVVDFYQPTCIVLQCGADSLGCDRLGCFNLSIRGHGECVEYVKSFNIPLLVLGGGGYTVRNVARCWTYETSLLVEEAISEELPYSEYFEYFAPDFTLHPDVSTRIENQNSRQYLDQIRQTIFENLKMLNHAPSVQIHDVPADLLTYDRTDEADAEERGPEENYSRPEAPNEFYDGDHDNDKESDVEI

[4] = tested on: B16-F10; test: Induction of apoptosis in mouse B16-F10 cells assessed as late apoptotic cells at 8 uM incubated for 48 hrs by Annexin V-FITC/PI staining based flow cytometry analysis (reference value: 5.02 %); format: functional
[5] = tested on: B16-F10; test: Induction of apoptosis in mouse B16-F10 cells assessed as necrotic cells at 2 uM incubated for 48 hrs by Annexin V-FITC/PI staining based flow cytometry analysis (reference value: 2.24%); format: functional
[6] = tested on: B16-F10; test: Induction of apoptosis in mouse B16-F10 cells assessed as early apoptotic cells at 4 uM incubated for 48 hrs by Annexin V-FITC/PI staining based flow cytometry analysis (reference value: 0.45 %); format: functional
[7] = tested on: B16-F10; test: Induction of apoptosis in mouse B16-F10 cells assessed as late apoptotic cells at 4 uM incubated for 48 hrs by Annexin V-FITC/PI staining based flow cytometry analysis (reference value: 5.02 %); format: functional
[8] = tested on: B16-F10; test: Immunomodulatory activity in mouse B16-F10 cells implanted in C57BL/6J mouse assessed as percentage of CD3 positive CD4 positive cells in tumor at 40 mg/kg, ip administered once daily for 9 days by flow cytometric analysis (reference value: 0.20 %); format: functional; conditions: time 9 day
[9] = tested on: B16-F10; test: Induction of apoptosis in mouse B16-F10 cells assessed as necrotic cells at 8 uM incubated for 48 hrs by Annexin V-FITC/PI staining based flow cytometry analysis (reference value: 2.24%); format: functional
[10] = Toxicity in C57BL/6J mouse implanted with mouse B16-F10 cells assessed as body weight loss at 20 to 40 mg/kg, ip administered once daily for 9 days; format: organism-based; conditions: in vivo, 216 h, dose 20-40 mg/kg, time 9 day
[11] = tested on: B16-F10; test: Induction of apoptosis in mouse B16-F10 cells assessed as necrotic cells at 4 uM incubated for 48 hrs by Annexin V-FITC/PI staining based flow cytometry analysis (reference value: 2.24%); format: functional
[12] = molecular target: Histone deacetylase 3 (Homo sapiens, UniProt O15379); test: Inhibition of human recombinant HDAC3 using Ac-Leu-Gly-Lys (Ac)-AMC as substrate at 1 uM preincubated for 10 mins followed by substrate addition and measured after 45 mins by TECAN microtiter plate reader analysis relative to control; conditions: time 55.0 min
Chain of Histone deacetylase 3 (O15379 whole entry): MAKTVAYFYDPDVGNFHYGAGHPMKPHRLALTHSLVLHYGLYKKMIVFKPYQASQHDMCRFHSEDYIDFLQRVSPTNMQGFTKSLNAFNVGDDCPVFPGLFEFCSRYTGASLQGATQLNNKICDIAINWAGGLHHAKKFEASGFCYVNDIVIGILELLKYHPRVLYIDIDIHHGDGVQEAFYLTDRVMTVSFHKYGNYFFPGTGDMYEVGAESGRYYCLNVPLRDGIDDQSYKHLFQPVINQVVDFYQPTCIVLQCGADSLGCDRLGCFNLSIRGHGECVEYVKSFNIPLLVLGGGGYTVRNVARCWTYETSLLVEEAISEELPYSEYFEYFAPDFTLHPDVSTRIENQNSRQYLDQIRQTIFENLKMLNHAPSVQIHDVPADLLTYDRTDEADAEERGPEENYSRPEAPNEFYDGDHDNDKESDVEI

[13] = tested on: B16-F10; test: Induction of apoptosis in mouse B16-F10 cells assessed as early apoptotic cells at 8 uM incubated for 48 hrs by Annexin V-FITC/PI staining based flow cytometry analysis (reference value: 0.45 %); format: functional
[14] = tested on: A-375; test: Antiproliferative activity against human A-375 cells assessed as cell viability incubated for 48 hrs by MTT assay; format: functional, cell-based
[15] = tested on: B16-F10; test: Induction of cell cycle arrest in mouse B16-F10 cells assessed as accumulation of cells at S phase at 1 uM incubated for 48 hrs by PI staining based flow cytometry analysis (reference value: 24.04%); format: functional
[16] = tested on: B16-F10; test: Induction of cell cycle arrest in mouse B16-F10 cells assessed as accumulation of cells at G0/G1 phase at 8 uM incubated for 48 hrs by PI staining based flow cytometry analysis (reference value: 70.09%); format: functional
[17] = tested on: A-375; test: Antiproliferative activity against human A-375 cells assessed as cell growth inhibition incubated for 48 hrs by MTT assay; format: functional, cell-based; conditions: A-375, 48 h
[18] = tested on: B16-F10; test: Induction of apoptosis in mouse B16-F10 cells assessed as viable cells at 4 uM incubated for 48 hrs by Annexin V-FITC/PI staining based flow cytometry analysis (reference value: 92.3%); format: functional; conditions: read-out: Activity
[19] = tested on: B16-F10; test: Induction of apoptosis in mouse B16-F10 cells assessed as early apoptotic cells at 2 uM incubated for 48 hrs by Annexin V-FITC/PI staining based flow cytometry analysis (reference value: 0.45 %); format: functional
[20] = tested on: Jurkat; test: Antiproliferative activity against human Jurkat T cells assessed as cell viability incubated for 48 hrs by MTT assay; format: functional, cell-based
[21] = molecular target: Programmed cell death protein 1/Programmed cell death 1 ligand 1 (Homo sapiens, UniProt Q9NZQ7); test: (§1) Inhibition of PD-1/PD-L1 (unknown origin) interaction assessed as inhibition rate at 1 uM by HTRF assay relative to control; format: protein-complex assay
Chain of Programmed cell death protein 1/Programmed cell death 1 ligand 1 (Q15116 whole entry): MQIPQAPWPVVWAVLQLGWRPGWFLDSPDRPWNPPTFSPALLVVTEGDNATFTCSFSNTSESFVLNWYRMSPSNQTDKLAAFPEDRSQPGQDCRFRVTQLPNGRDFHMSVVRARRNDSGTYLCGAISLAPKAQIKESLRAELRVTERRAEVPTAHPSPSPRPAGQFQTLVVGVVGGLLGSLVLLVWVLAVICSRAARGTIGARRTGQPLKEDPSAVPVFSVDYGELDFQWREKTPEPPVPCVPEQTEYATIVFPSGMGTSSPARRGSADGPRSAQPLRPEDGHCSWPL
Chain of Programmed cell death protein 1/Programmed cell death 1 ligand 1 (Q9NZQ7 whole entry): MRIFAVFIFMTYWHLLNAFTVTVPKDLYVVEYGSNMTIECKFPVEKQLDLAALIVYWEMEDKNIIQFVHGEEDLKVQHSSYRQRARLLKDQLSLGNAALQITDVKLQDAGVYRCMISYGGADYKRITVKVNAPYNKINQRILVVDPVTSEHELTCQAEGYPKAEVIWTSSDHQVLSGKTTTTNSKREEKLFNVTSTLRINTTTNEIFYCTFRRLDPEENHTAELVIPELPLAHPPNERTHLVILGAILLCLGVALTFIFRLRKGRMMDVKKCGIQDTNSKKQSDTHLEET

[22] = molecular target: T1, Programmed cell death protein 1/Programmed cell death 1 ligand 1 (Homo sapiens); test: as §1; format: protein-complex assay
[23] = tested on: B16-F10; test: Immunomodulatory activity in mouse B16-F10 cells implanted in C57BL/6J mouse assessed as percentage of CD3 positive CD4 positive cells in tumor at 20 mg/kg, ip administered once daily for 9 days by flow cytometric analysis (reference value: 0.20 %); format: functional; conditions: time 9 day
[24] = Toxicity in C57BL/6J mouse implanted with mouse B16-F10 cells assessed as heart damage at 20 to 40 mg/kg, ip administered once daily for 9 days by H and E staining based analysis; format: organism-based; conditions: in vivo, 216 h, dose 20-40 mg/kg, time 9 day

With `CCCNNC(=O)CCCNCc1ccc(-c2cccc(-c3ccccc3)c2C)nc1OC` the Activity [1] was 14.8%, the inhibition [2] was 55.4% and the inhibition [3] was “Active”. For the same compound, the Activity [4] was 11.4%, the Activity [5] was 4.4% and the Activity [6] was 17.1%. It also gave an Activity [7] of 16.4%, an Activity [8] of 2.8% and an Activity [9] of 2.21%. The Activity [10] was “Non-toxic”, the Activity [11] was 4.08% and the inhibition [12] was 83.1%. For the same compound, the Activity [13] was 32.8%, the Activity [14] was “Active” and the Activity [15] was 21.79%. It also gave an Activity [16] of 96.8%, an IC50 [17] of 3460 nM and a viability at 4 µM [18] of 62.3%. The Activity [19] was 9.81%, the Activity [20] was “Active” and the IC50 [21] was 89.4 nM. For the same compound, the inhibition [22] was 94.3%, the Activity [23] was 1.75% and the Activity [24] was “Non-toxic”.
